This assay addresses KiSS-1 receptor (Homo sapiens, UniProt Q969F8). The assay is described as follows: Binding Assay.

pIC50: −log10 of the molar value.

By pIC50 is commonly meant −log10 of the IC50, conventionally taken in molar units. Low values mean a high IC50, high ones a low IC50.

Chain of KiSS-1 receptor (Q969F8 whole entry): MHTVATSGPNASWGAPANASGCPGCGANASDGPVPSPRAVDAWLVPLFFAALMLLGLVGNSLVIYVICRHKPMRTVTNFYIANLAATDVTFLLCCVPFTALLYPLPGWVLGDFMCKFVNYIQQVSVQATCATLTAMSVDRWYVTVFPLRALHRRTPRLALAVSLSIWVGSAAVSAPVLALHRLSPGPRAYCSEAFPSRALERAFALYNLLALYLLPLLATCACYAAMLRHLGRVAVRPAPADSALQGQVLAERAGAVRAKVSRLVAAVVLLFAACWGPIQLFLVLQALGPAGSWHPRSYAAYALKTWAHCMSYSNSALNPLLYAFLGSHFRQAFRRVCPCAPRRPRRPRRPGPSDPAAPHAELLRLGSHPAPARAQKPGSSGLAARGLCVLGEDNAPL

`CNC[C@@H](O)CC(CC(C)C)C(C)=O` (stereo partly specified) [US8592379, 37] showed a pIC50 of 9.62.

Values taken from BindingDB's records for patent US8592379 (Kyoto University, 2013).
